Experimental data taken from ChEMBL document CHEMBL5108051, “Improving the Antimicrobial Performance of Amphiphilic Cationic Antimicrobial Peptides Using Glutamic Acid Full-Scan and Positive Charge Compensation Strategies” (J Med Chem, 2022).
In brackets after ≈: the same amount, converted by molar mass. Activity calls are given as the source filed them. No cut-off for these calls is given here. Bridge positions count the residues as written; N and C are the ends. Square brackets hold non-standard residues; d marks the D form. Peptide text beside a SMILES is read from it. * marks the point of attachment. X1 = CC[C@H](C)CCCCC(=O)*; Dab = NCC[C@H](N)C(=O)O

Tests used:
[1] = test system: Escherichia coli; assay: Antibacterial activity against Escherichia coli ATCC 25922 assessed as growth inhibition measured after 18 to 24 hrs by CLSI based broth microdilution method; type: functional; details: time 18-24 hrs
[2] = test system: Klebsiella pneumoniae; assay: Antibacterial activity against Klebsiella pneumoniae ATCC 700603 assessed as growth inhibition measured after 18 to 24 hrs by CLSI based broth microdilution method; type: functional; details: time 18-24 hrs
[3] = test system: Pseudomonas aeruginosa; assay: Antibacterial activity against Pseudomonas aeruginosa ATCC 27853 assessed as growth inhibition measured after 18 to 24 hrs by CLSI based broth microdilution method; type: functional; details: time 18-24 hrs
[4] = test system: Staphylococcus aureus; assay: Antibacterial activity against Staphylococcus aureus ATCC 25923 assessed as growth inhibition measured after 18 to 24 hrs by CLSI based broth microdilution method; type: functional; details: time 18-24 hrs
[5] = test system: Bacillus subtilis; assay: Antibacterial activity against Bacillus subtilis ATCC 23857 assessed as growth inhibition measured after 18 to 24 hrs by CLSI based broth microdilution method; type: functional; details: time 18-24 hrs
[6] = test system: Erythrocyte; assay: Hemolytic activity against mouse RBC measured after 1 hrs; type: toxicity, cell-based
[7] = Stability of the compound in mouse serum at 10 mM assessed as half life by RP-HPLC analysis; type: ADME, cell-free
[8] = test system: Cell membrane; assay: Induction of cell membrane disruption in Staphylococcus aureus ATCC 25923 assessed as cell morphological damage measured after 120 mins by […] electron microscope analysis; type: subcellular
[9] = test system: Cell membrane; assay: Induction of cell membrane disruption in Escherichia coli ATCC 25922 assessed as cell morphological damage measured after 120 mins by […] electron microscope analysis; type: subcellular
[10] = test system: Cell membrane; assay: Induction of cell membrane disruption in Escherichia coli ATCC 25922 assessed as increase in PI uptake measured after 30 to 120 mins by propidium iodide staining based FACS flow cytometry analysis (reference value: 6.0 %); type: subcellular; details: time 30-120 min
[11] = test system: Cell membrane; assay: Induction of cell membrane disruption in Staphylococcus aureus ATCC 25923 assessed as increase in PI uptake measured after 30 to 120 mins by propidium iodide staining based FACS flow cytometry analysis (reference value: 15%); type: subcellular; details: time 30-120 min
[12] = test system: Cell membrane; assay: Induction of outer membrane permeabilization to NPN in Staphylococcus aureus ATCC 25923 cells assessed as increase in fluorescence intensity measured within 1 min by NPN fluorescent dye based microplate reader assay; type: subcellular
[13] = test system: Cell membrane; assay: Induction of inner membrane permeabilization in Escherichia coli ML-35 ATCC 43837 assessed as increase in absorbance at 1 to 4 times MIC measured at 420 nm in presence of ONPG by microplate reader assay; type: subcellular; details: DDE = dose-dependent effect
[14] = test system: Escherichia coli; assay: Induction of cell membrane damage in Escherichia coli ATCC 25922 assessed as increase in nucleic acid leakage by microplate reader assay; type: functional, organism-based; details: time 0-6 hrs, TDE = time-dependent effect
[15] = test system: Staphylococcus aureus; assay: Induction of cell membrane damage in Staphylococcus aureus ATCC 25923 assessed as increase in nucleic acid leakage by microplate reader assay; type: functional, organism-based; details: time 0-6 hrs, TDE = time-dependent effect
[16] = test system: Staphylococcus aureus; assay: Antibacterial activity against Staphylococcus aureus ATCC 25923 assessed as resistance development measured after 15 passages at sub-MIC concentration by resistance development assay; type: functional, organism-based
[17] = test system: Escherichia coli; assay: Antibacterial activity against Escherichia coli ATCC 25922 assessed as resistance development measured after 15 passages at sub-MIC concentration by resistance development assay; type: functional, organism-based
[18] = test system: Staphylococcus aureus; assay: Antibacterial activity against Staphylococcus aureus ATCC 25923 assessed as fractional inhibitory concentration index in presence of vancomycin by checkerboard assay; type: functional
[19] = test system: Staphylococcus aureus; assay: Antibacterial activity against Staphylococcus aureus ATCC 25923 assessed as fractional inhibitory concentration index in presence of kanamycin by checkerboard assay; type: functional
[20] = test system: Staphylococcus aureus; assay: Antibacterial activity against Staphylococcus aureus ATCC 25923 assessed as fractional inhibitory concentration index in presence of gentamicin by checkerboard assay; type: functional
[21] = test system: Staphylococcus aureus; assay: Antibacterial activity against rifampin resistant Staphylococcus aureus ATCC 25923 assessed as fractional inhibitory concentration index in presence of rifampin by checkerboard assay; type: functional
[22] = test system: Staphylococcus aureus; assay: Antibacterial activity against rifampin resistant Staphylococcus aureus ATCC 25923 assessed as fractional inhibitory concentration index in presence of vancomycin by checkerboard assay; type: functional
[23] = test system: Staphylococcus aureus; assay: Antibacterial activity against rifampin resistant Staphylococcus aureus ATCC 25923 assessed as fractional inhibitory concentration index in presence of kanamycin by checkerboard assay; type: functional
[24] = test system: Staphylococcus aureus; assay: Antibacterial activity against rifampin resistant Staphylococcus aureus ATCC 25923 assessed as fractional inhibitory concentration index in presence of gentamicin by checkerboard assay; type: functional
[25] = test system: Staphylococcus aureus; assay: Antibacterial activity against gentamicin resistant Staphylococcus aureus ATCC 25923 assessed as fractional inhibitory concentration index in presence of rifampin by checkerboard assay; type: functional
[26] = test system: Staphylococcus aureus; assay: Antibacterial activity against gentamicin resistant Staphylococcus aureus ATCC 25923 assessed as fractional inhibitory concentration index in presence of kanamycin by checkerboard assay; type: functional
[27] = test system: Staphylococcus aureus; assay: Antibacterial activity against gentamicin resistant Staphylococcus aureus ATCC 25923 assessed as fractional inhibitory concentration index in presence of gentamicin by checkerboard assay; type: functional
[28] = test system: Escherichia coli; assay: Antibacterial activity against Escherichia coli ATCC 25922 assessed as fractional inhibitory concentration index in presence of vancomycin by checkerboard assay; type: functional
[29] = test system: Escherichia coli; assay: Antibacterial activity against Escherichia coli ATCC 25922 assessed as fractional inhibitory concentration index in presence of kanamycin by checkerboard assay; type: functional
[30] = test system: Escherichia coli; assay: Antibacterial activity against Escherichia coli ATCC 25922 assessed as fractional inhibitory concentration index in presence of gentamicin by checkerboard assay; type: functional
[31] = test system: Escherichia coli; assay: Antibacterial activity against rifampin resistant Escherichia coli ATCC 25922 assessed as fractional inhibitory concentration index in presence of rifampin by checkerboard assay; type: functional
[32] = test system: Escherichia coli; assay: Antibacterial activity against rifampin resistant Escherichia coli ATCC 25922 assessed as fractional inhibitory concentration index in presence of kanamycin by checkerboard assay; type: functional
[33] = test system: Escherichia coli; assay: Antibacterial activity against rifampin resistant Escherichia coli ATCC 25922 assessed as fractional inhibitory concentration index in presence of gentamicin by checkerboard assay; type: functional
[34] = test system: Escherichia coli; assay: Antibacterial activity against gentamicin resistant Escherichia coli ATCC 25922 assessed as fractional inhibitory concentration index in presence of rifampin by checkerboard assay; type: functional
[35] = test system: Escherichia coli; assay: Antibacterial activity against gentamicin resistant Escherichia coli ATCC 25922 assessed as fractional inhibitory concentration index in presence of vancomycin by checkerboard assay; type: functional
[36] = test system: Escherichia coli; assay: Antibacterial activity against gentamicin resistant Escherichia coli ATCC 25922 assessed as fractional inhibitory concentration index in presence of gentamicin by checkerboard assay; type: functional
[37] = Acute toxicity in BALB/c mouse assessed as mortality at 80 mg/kg, ip administered as single dose measured for 7 days; type: organism-based; details: in vivo, time 7 day; for mortality at 168 h: BALB/c, read-out: Activity
[38] = Acute toxicity in BALB/c mouse assessed as pathological changes in heart at 20 to 80 mg/kg, ip administered as single dose measured for 7 days by H and E staining method; type: organism-based; details: in vivo, 168 h, dose 20-80 mg/kg, time 7 day
[39] = Acute toxicity in BALB/c mouse assessed as pathological changes in liver at 20 to 80 mg/kg, ip administered as single dose measured for 7 days by H and E staining method; type: organism-based; details: in vivo, 168 h, dose 20-80 mg/kg, time 7 day

SMILES	MIC [1]	MIC [2]	MIC [3]	MIC [4]	MIC [5]	MHC10 [6]	half-life at 10000 µM [7]	Activity [8]	Activity [9]	Activity [10]	Activity [11]	Activity [12]	Activity [13]	Activity [14]	Activity [15]	Activity [16]	Activity [17]	fractional inhibitory concentration index (FICI) [18]	fractional inhibitory concentration index (FICI) [19]	fractional inhibitory concentration index (FICI) [20]	also measured
CC[C@H](C)[C@H](NC(=O)[C@@H]1CCCN1C(=O)[C@H](CC(C)C)NC(=O)[C@@H](N)Cc1ccccc1)C(=O)N[C@H](C(=O)N[C@@H](C)C(=O)N[C@@H](CCCCN)C(=O)N[C@@H](CC(C)C)C(=O)N[C@@H](CC(C)C)C(=O)N[C@@H](CO)C(=O)NCC(=O)N[C@@H](CC(C)C)C(=O)N[C@@H](CC(C)C)C(N)=O)C(C)C (H-FLPIVAKLLSGLL-NH2)	32 µM (≈ 44.2 µg/mL)	> 128 µM	128 µM (≈ 177 µg/mL)	4 µM (≈ 5.53 µg/mL)	4 µM (≈ 5.53 µg/mL)	12.53 µM	5.55 h	Active	Active	78.3%	24.1%	Active	Dde	Tde	Tde	Active	Active	1.0625	0.75	1	fractional inhibitory concentration index (FICI) [21]: 1; fractional inhibitory concentration index (FICI) [22]: 0.75; fractional inhibitory concentration index (FICI) [23]: 0.5625; fractional inhibitory concentration index (FICI) [24]: 0.5625; fractional inhibitory concentration index (FICI) [25]: 0.75; fractional inhibitory concentration index (FICI) [26]: 0.75; fractional inhibitory concentration index (FICI) [27]: 0.75; fractional inhibitory concentration index (FICI) [28]: 0.625; fractional inhibitory concentration index (FICI) [29]: 1.125; fractional inhibitory concentration index (FICI) [30]: 1; fractional inhibitory concentration index (FICI) [31]: 1; fractional inhibitory concentration index (FICI) [32]: 0.625; fractional inhibitory concentration index (FICI) [33]: 0.625; fractional inhibitory concentration index (FICI) [34]: 0.625; fractional inhibitory concentration index (FICI) [35]: 0.75; fractional inhibitory concentration index (FICI) [36]: 1; mortality at 168 h [37]: 100%; Activity [38]: Non-Toxic; Activity [39]: Non-Toxic
CC(C)C[C@H](NC(=O)[C@H](CC(C)C)NC(=O)[C@H](CCC(=O)O)NC(=O)[C@H](CCCCN)NC(=O)[C@H](CC(C)C)NC(=O)[C@H](CC(C)C)NC(=O)[C@H](CCCCN)NC(=O)[C@H](C)NC(=O)[C@@H](NC(=O)[C@H](CCCCN)NC(=O)[C@@H]1CCCN1C(=O)[C@H](CC(C)C)NC(=O)[C@@H](N)Cc1ccccc1)C(C)C)C(N)=O (H-FLPKVAKLLKELL-NH2)	8 µM (≈ 12.1 µg/mL)	16 µM (≈ 24.2 µg/mL)	8 µM (≈ 12.1 µg/mL)	8 µM (≈ 12.1 µg/mL)	4 µM (≈ 6.04 µg/mL)	202 µM	9.64 h	Active	Active	83.1%	49.3%	Active	Dde	Tde	Tde	Active	Active	0.75	0.625	0.625	fractional inhibitory concentration index (FICI) [21]: 0.75; fractional inhibitory concentration index (FICI) [22]: 1; fractional inhibitory concentration index (FICI) [23]: 0.625; fractional inhibitory concentration index (FICI) [24]: 0.5; fractional inhibitory concentration index (FICI) [25]: 0.625; fractional inhibitory concentration index (FICI) [26]: 1; fractional inhibitory concentration index (FICI) [27]: 0.75; fractional inhibitory concentration index (FICI) [28]: 0.375; fractional inhibitory concentration index (FICI) [29]: 0.625; fractional inhibitory concentration index (FICI) [30]: 0.5; fractional inhibitory concentration index (FICI) [31]: 0.75; fractional inhibitory concentration index (FICI) [32]: 0.75; fractional inhibitory concentration index (FICI) [33]: 0.75; fractional inhibitory concentration index (FICI) [34]: 0.625; fractional inhibitory concentration index (FICI) [35]: 0.75; fractional inhibitory concentration index (FICI) [36]: 1.25; mortality at 168 h [37]: 40%; Activity [38]: Non-Toxic; Activity [39]: Non-Toxic
CC[C@H](C)CCCCC(=O)N[C@@H](CCN)C(=O)N[C@H](C(=O)N[C@@H](CCN)C(=O)N[C@H]1CCNC(=O)[C@H]([C@@H](C)O)NC(=O)[C@H](CCN)NC(=O)[C@H](CCN)NC(=O)[C@H](CC(C)C)NC(=O)[C@@H](Cc2ccccc2)NC(=O)[C@H](CCN)NC1=O)[C@@H](C)O (X1-[Dab]T[Dab][Dab][Dab][dF]L[Dab][Dab]T; lactam 4-C)	4 µM (≈ 4.81 µg/mL)	4 µM (≈ 4.81 µg/mL)	2 µM (≈ 2.41 µg/mL)	16 µM (≈ 19.3 µg/mL)	4 µM (≈ 4.81 µg/mL)	> 256 µM	12.5 h	Active	Active	38.5%	45.8%	Active	Dde	Tde	Tde	Active	Active	1.0625	0.75	0.75	fractional inhibitory concentration index (FICI) [21]: 1; fractional inhibitory concentration index (FICI) [22]: 1; fractional inhibitory concentration index (FICI) [23]: 0.625; fractional inhibitory concentration index (FICI) [24]: 0.375; fractional inhibitory concentration index (FICI) [25]: 0.5625; fractional inhibitory concentration index (FICI) [26]: 0.625; fractional inhibitory concentration index (FICI) [27]: 0.5; fractional inhibitory concentration index (FICI) [28]: 0.375; fractional inhibitory concentration index (FICI) [29]: 0.375; fractional inhibitory concentration index (FICI) [30]: 0.375; fractional inhibitory concentration index (FICI) [31]: 0.5625; fractional inhibitory concentration index (FICI) [32]: 0.375; fractional inhibitory concentration index (FICI) [33]: 0.375; fractional inhibitory concentration index (FICI) [34]: 0.375; fractional inhibitory concentration index (FICI) [35]: 0.3125; fractional inhibitory concentration index (FICI) [36]: 0.625; Activity ([37]; ip, 80 mg/kg, 168 h): Toxic; Activity [38]: Non-Toxic; Activity [39]: Non-Toxic
